The NIST ThermoML archive (doi:10.1021/je300152t)
± gives the expanded uncertainty stated by the source.

Columns and labels:
[1] = Crystal; DTA
[2] = Molar enthalpy of transition or fusion; conditions: Crystal; DSC

SMILES | Normal melting temperature [1] | Molar enthalpy of transition or fusion [2]
CC(=O)Nc1ccc(C)cc1 [1-acetamido-4-methylbenzene] | 148.2 ± 0.7 °C | 7.03 ± 0.167 kcal/mol
CCOc1cccc(NC(C)=O)c1 [N-(3-ethoxyphenyl)acetamide] | 95 ± 0.9 °C | 6.91 ± 0.239 kcal/mol
CCOc1ccc(NC(C)=O)cc1 [N-(4-ethoxyphenyl)ethanamide] | 134 ± 1 °C | 7.65 ± 0.167 kcal/mol
COc1ccc(NC(C)=O)cc1 [N-(4-methoxyphenyl)ethanamide] | 125.1 ± 2.4 °C | 6.07 ± 0.191 kcal/mol
O=C(Nc1ccccc1)c1ccccc1 [N-phenylbenzamide] | 162 ± 1 °C | 7.46 ± 0.359 kcal/mol
CC(=O)Nc1ccccc1 [N-phenylethanamide] | 113.8 ± 0.4 °C | 5.28 ± 0.12 kcal/mol
